Assay: Dynamic vapor sorption (DVS) hygroscopicity
Assay type: physicochemical
Protocol: Hygroscopicity was studied using dynamic vapor sorption (DVS, TA Q5000 SA, TA Instruments, New Castle, DE or DVS, DVS Intrinsic, Surface Measurement Systems, London, UK). A sample (2-20 mg) was placed in an aluminum DVS pan and loaded on the sample side of the twin pan balance. The water sorption and desorption were studied as a function of relative humidity (RH) at 25° C. In 10% RH increments, the relative humidity was increased from 5% RH to 95% RH and then decreased back to 5%. […] Data analysis was performed using Universal Analysis 2000 Version 4.7A (TA Instruments, New Castle, DE) for TA DVS runs and Microsoft Excel for SMS DVS runs.

water absorbed (DVS analysis) (25° C. and 95% RH): less than 0.1 wt % | hygroscopicity (DVS analysis) (25° C., up to 95% RH): non-hygroscopic | form change by XRPD analysis of the sample post DVS analysis (post DVS): no form change
SMILES: C[C@H](C#N)Nc1cc(-c2ccc3cc(C#N)cnn23)ncc1C(=O)NC[C@@H](F)C(C)(C)O [Form IV, 4-(((R)-1-cyanoethyl)amino)-6-(3-cyanopyrrolo[1,2-b]pyridazin-7-yl)-N—((R)-2-fluoro-3-hydroxy-3-methylbutyl)nicotinamide]

— patent US20250034154A1, “SALTS AND SOLID FORMS OF A COMPOUND THAT MODULATES IRAK4” (Gilead Sciences, Inc., priority 2023, published 2025)
